Source: patent US8557798

Conditions: from COC(=O)c1cccc(CN2C(=O)NC(C)(c3cccc(CCCN)c3)C2=O)c1; amide bond; sodium methoxide; MeOH; 7.5 mM; 85.0 °C; 96.0 h

CC12NC(=O)N(Cc3cccc(c3)C(=O)NCCCc3cccc1c3)C2=O (stereo not shown)
ring closure, yield of all isomers: 48%
